Measurements from patent publication US20060205636A1, “Oxytocin as cardiomyogenesis inducer and uses thereof” (priority 2002, published 2006).
Entries after “also recorded” stand apart in the source; their conditions may differ. Each block holds one compound with its values, some of them ahead of it.

What was measured:
P19 cells [1] = assay: Cardiac differentiation of P19 cell aggregates, scored by beating cell colonies; type: cell-based, mouse; details: for day by which beating cell colonies were present in all 24 independently growing cultures: aggregates treated 4 days with 10^−7 M OT or 0.5% DMSO, 24-well plate
Text: P19 cells were propagated and differentiated according to the procedures of Rudnicki and McBurney (28), with minor modifications. Undifferentiated cells were propagated in complete medium containing α-modified Eagle's minimal essential medium (α-MEM; GIBCO-BRL Burlington, Ontario, Canada) supplemented with 2.5% heat-inactivated fetal bovine serum, 7.5% heat-inactivated donor bovine serum (Cansera International, Rexdale, Ontario, Canada), and the antibiotics (GIBCO-BRL) penicillin G (50 U/ml) and streptomycin (50 μg/ml). The cultures were maintained at 37° C. in a humidified atmosphere of 5% CO2 and passaged every 2 days. The general protocol used for differentiation of P19 cells is depicted in FIG. 1.
(§1) Briefly, 0.25×10^6 cells were allowed to aggregate for 4 days in non-adhesive bacteriological grade petri dishes (6-cm diameter) containing 5 ml complete medium, in the presence of 0.5% (v/v) DMSO (Sigma Chemical Co., St. Louis, Mo.). At day 2 of aggregation, the inducing culture medium was replenished. At day 4, aggregates were transferred to tissue culture grade vessels (10-cm diameter dishes or 24/48-well plates), and cultured in complete medium in the absence of differentiation-inducing agent. Aggregation was also done in the absence of DMSO, and in the presence of 10^−7 M OT and/or 10^−7 OTA ([d(CH2)5^1,Tyr(Me)^2,Thr^4,Orn^8,Tyr-NH2^9]-vasotocin), both from Peninsula Laboratories Inc. (San Carlos, Calif.). The cell populations were analyzed at days 10-14 of the entire differentiation protocol, at a time cardiac cells normally beat synchronously.
P19 cells were subjected to the cardiac differentiation protocol depicted in Example 1, except that different concentrations of OT were used during the four days of aggregation. At day 4, aggregates were transferred to 24-well plates and scored for the appearance of beating cell colonies. In addition, cells were collected at day 14 for analysis of OTR or OT expression by RT-PCR. Cell aggregates were also treated with RA and/or T3.

ANP mRNA = assay: RT-PCR analysis of ANP gene transcript in P19 cultures; type: cell-based, mouse; details: for ANP mRNA level compared to undifferentiated cells: day 14 of differentiation
Procedure: Total cellular RNA was extracted with TRIzol® Reagent (Invitrogen Life Technologies, Burlington, Ontario, Canada), and poly(A)^+mRNA was affinity purified from 200 μg of total RNA onto Oligotex® mRNA columns (Qiagen, Mississauga, Ontario, Canada), as per the manufacturers' instructions. […] Invitrogen). First-strand cDNA (5 μl) was then used for PCR amplification with OTR, ANP or GAPDH exon-specific oligonucleotide primers in a Robocycler Gradient 40 thermocycler (Stratagene, La Jolla, Calif.). Sequences of mouse OTR and ANP genes have been described (26, 34). Conditions for RT-PCR analysis of mouse OTR were adapted from Wagner et al. (6, 7). For all PCR studies the number of cycles used was within the linear range of amplification. The OTR sense and antisense primers were respectively the 22-bp [NT] ID NO:9) and the 23-bp [NT] ID NO:10). […] The ANP antisense and sense primers were respectively the 24-bp [NT] ID NO:11) and the 20-bp [NT] ID NO:12). […] The amplification of GAPDH mRNA, a constitutively and ubiquitously expressed gene, served as an internal standard for RT-PCR analysis. The 23-bp antisense primer [NT] ID NO:13) and the 23-bp sense primer [NT] ID NO:14) were used.

OTR = OTR expression in P19 cells (immunocytochemistry, Western blot, RT-PCR); type: cell-based, mouse; details: for OTR expression (protein and mRNA) after treatment: DMSO 0.5%, OT 10^−7 M or OTA 10^−7 M alone; for early OTR induction (RT-PCR): second day of differentiation protocol, preliminary results
Procedure: (§2) For immunocytofluorescence studies, cells were grown onto glass coverslips coated with 0.1% gelatin. They were then fixed by 20-min incubation in PBS containing 4% paraformaldehyde, rinsed in PBS and stored at 4° C. in this buffer until used. All subsequent steps of permeabilization, washing and incubation with antibodies were performed at room temperature. Fixed cells were permeabilized for 10 min in PBS containing 0.005% saponin, blocked for 60 min in PBS-BSA-saponin (PBS containing 1% bovine serum albumin and 0.005% saponin), incubated for 45 min with the primary antibody diluted 1/50 and for 45 min with a fluorescein-conjugated swine anti-goat IgG antibody (Biosource International, Camarillo, Calif.) diluted 1/1000. PBS-BSA-saponin was used for washing between incubations and antibodies were diluted in the same buffer but containing 1.5% normal swine serum (Jackson Immuno Research Laboratories Inc., West Grove, Pa.). Coverslips were mounted in PBS containing 50% glycerol, and immediately examined under the microscope. The primary antibodies were all from Santa Cruz Biotechnology, Inc. (Santa Cruz, Calif.) and produced in goat: antibody C-20 against OT receptor (OTR), antibody K-16 against sarcomeric myosin heavy chain (MHC), and antibody N-19 against dihydropyridine receptor-alphal (DHPR-alphal).
Total cellular RNA was extracted with TRIzol® Reagent (Invitrogen Life Technologies, Burlington, Ontario, Canada), and poly(A)^+mRNA was affinity purified from 200 μg of total RNA onto Oligotex® mRNA columns (Qiagen, Mississauga, Ontario, Canada), as per the manufacturers' instructions. First-strand cDNA was synthesized in a final volume of 40 μl containing first-strand buffer, 3 μg of cellular RNA, 4 μl of hexanucleotide primers (Amersham-Pharmacia, Baie d'Urfé, Quebec, Canada), and avian myeloblastosis virus reverse transcriptase (12 units/μg RNA; Invitrogen). First-strand cDNA (5 μl) was then used for PCR amplification with OTR, ANP or GAPDH exon-specific oligonucleotide primers in a Robocycler Gradient 40 thermocycler (Stratagene, La Jolla, Calif.). Sequences of mouse OTR and ANP genes have been described (26, 34). Conditions for RT-PCR analysis of mouse OTR were adapted from Wagner et al. (6, 7). For all PCR studies the number of cycles used was within the linear range of amplification. The OTR sense and antisense primers were respectively the 22-bp 5′-[…]-3′ (SEQ ID NO:9) and the 23-bp 5′-[…]-3′ (SEQ ID NO:10). Amplification was performed over 32 cycles, each involving 1 min at 94° C., 1.5 min at 62° C. and 1.5 min at 72° C., and was terminated by a 5-min final extension at 72° C. The ANP antisense and sense primers were respectively the 24-bp 5′-[…]-3′ (SEQ ID NO:11) and the 20-bp 5′-[…]-3′ (SEQ ID NO:12). Amplification was performed over 25-30 cycles, each involving 1 min at 94° C., 1 min at 65° C. and 3 min at 72° C., and was terminated by a 5-min final extension at 72° C. The amplification of GAPDH mRNA, a constitutively and ubiquitously expressed gene, served as an internal standard for RT-PCR analysis. The 23-bp antisense primer 5′-[…]-3′ (SEQ ID NO:13) and the 23-bp sense primer 5′-[…]-3′ (SEQ ID NO:14) were used. Amplification was performed over 23 cycles, each involving 1 min at 94° C., 1.5 min at 59° C. and 2 min at 72° C.
Cells were collected by scraping, homogenized in sucrose buffer (20 mM Hepes/Tris, pH 7.4, containing 250 mM sucrose and 20 μg/ml of the protease inhibitor phenylmethylsulfonyl fluoride), then centrifuged at 3000 g for 10 min at 4° C. to remove debris. The supernatants were centrifuged at 100 000 g for 45 min at 4° C., and the pellets were resuspended in sucrose buffer for analysis of protein content by a modified Bradford assay (30). […]

P19 cells [2] = details: cited from earlier work
P19 cells [3] = assay: OT production by induced P19 cells (RIA); type: cell-based, mouse; details: day 14, 4 h in serum-free medium
Procedure: P19 cells induced with DMSO or OT were cultured until day 14 in absence of inducer. Cells were washed carefully with PBS and incubated for 4 h in serum-free α-MEM supplemented with protease inhibiors (aprotinin, 30 μg/mL and soybean trypsin inhibitor (SBTI), 100 μg/mL). Cells and media were collected, extracted on Sep-Pak C18-cartridges (Waters Canada, Mississauga, Ontario), lyophilized, resuspended in a minimal volume of α-MEM and assayed by RIA as described (8). RIA was also done on undiluted serum combination used for P19 cell culture (1 part of fetal bovine serum and 3 parts of donor bovine serum).

P19 cells [4] = assay: Mean diameter of P19 cell aggregates; type: cell-based, mouse; details: data not shown
Procedure: as §1

[5] = tested on: sarcomeric MHC and DHPR-alphal; assay: Immunocytofluorescence of cardiac muscle markers in P19 cells; type: cell-based, mouse; details: for MHC and DHPR-alphal immunoreactive foci: aggregates treated day 0-4, stained day 14
Procedure: as §2

P19 cells [6] = assay: Rhodamine123 retention in P19 cultures; type: cell-based, mouse; details: day 10 of differentiation, p<0.001
Procedure: For morphological examination, cells were grown directly onto the plastic surface of tissue culture vessels. For staining with rhodamine^123 (Sigma), day-4 aggregates were distributed in 24-well culture plates and grown until day 8. Then, dye was added to the culture medium at a final concentration of 1 μg/ml for 45 min, and afterwards, the cells were washed extensively with phosphate-buffered saline (PBS) and cultured for 48 h in the absence of the dye. Dye retained by cells in each well was measured by a fluorescence microplate reader (SPECTRA Max Gemini®, Molecular Devices, Sunnyvale, Calif.) at 505 nm for excitation and 534 nm for emission.

[7] = target: oxytocin receptor (OTR) of P19 mouse embryonal carcinoma cells (mouse) (UniProt P97926); assay: cell-based or functional assay; details: scale: cultures with beating colonies
oxytocin receptor (OTR) of P19 mouse embryonal carcinoma cells (mouse), sequence (P97926 whole entry): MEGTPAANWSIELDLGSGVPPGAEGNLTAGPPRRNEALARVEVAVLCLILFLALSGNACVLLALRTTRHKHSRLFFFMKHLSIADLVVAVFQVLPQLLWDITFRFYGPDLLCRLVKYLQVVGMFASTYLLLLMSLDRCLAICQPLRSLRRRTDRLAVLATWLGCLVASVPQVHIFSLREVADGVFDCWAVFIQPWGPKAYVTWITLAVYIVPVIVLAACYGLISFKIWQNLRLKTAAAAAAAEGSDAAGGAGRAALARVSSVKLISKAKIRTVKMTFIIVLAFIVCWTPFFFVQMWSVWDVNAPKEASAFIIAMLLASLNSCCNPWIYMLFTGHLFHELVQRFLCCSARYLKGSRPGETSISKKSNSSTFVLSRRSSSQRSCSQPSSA

Compound: [d(CH2)5^1,Tyr(Me)^2,Thr^4,Orn^8,Tyr-NH2^9]-vasotocin [OTA]
effect of OTA on T3-induced cardiac differentiation (P19 cells [1]; 30 nM T3 + 10^−7 M OTA): abolished cardiac differentiation induced by T3; also recorded: completely inhibits P19 cell differentiation into cardiomyocytes
effect of OTA on DMSO-induced cardiac differentiation (beating cell colonies) (P19 cells [1]; 10^−7 M OTA + 0.5% DMSO): abolished the cardiogenic action of DMSO; also recorded: completely inhibits P19 cell differentiation into cardiomyocytes
beating cells with OTA in combination with OT (P19 cells [1]; 10^−7 M OTA + 10^−7 M OT): no beating cells were seen
beating cells with OTA in place of OT (P19 cells [1]; 10^−7 M OTA alone): no beating cells were seen
effect of OTA on RA-induced cardiac differentiation (P19 cells [1]; RA 10^−7 M + OTA 10^−7 M): completely inhibits RA-induced cardiac differentiation; also recorded: completely inhibits P19 cell differentiation into cardiomyocytes
effect of OTA on DMSO-induced ANP expression (ANP mRNA; DMSO + OTA day 0-4, day 14): not statistically significant
effect of OTA on OT-induced ANP expression (ANP mRNA; OT + OTA day 0-4, day 14, p<0.05): prevented OT-induced upregulation of ANP expression
effect of OTA on OT-induced OTR upregulation (OTR; OT 10^−7 M + OTA 10^−7 M, day 14): inhibited OT-induced OTR upregulation
OTR expression (protein and mRNA) after treatment (OTR; day 14): did not upregulate OTR expression by itself
early OTR induction (RT-PCR) (OTR): no effect on OTR expression

Compound: N[C@@H](Cc1cc(I)c(Oc2ccc(O)c(I)c2)c(I)c1)C(=O)O [T3, triiodothyronine]
optimal effective concentration for cardiomyogenic differentiation of P19 cells (P19 cells [2]; Rodriguez et al., 1994): 30 nM

Compound: oxytocin [OT]
OT concentration range over which differentiation into beating cardiomyocytes is concentration-dependent (P19 cells [1]; 4 days of aggregation with different OT concentrations): 10^−6 to 10^−9 M
formation of rhythmically-beating cells (P19 cells [1]; P19 cell aggregates treated day 0-4 with 10^−7 M OT): induced the formation of rhythmically-beating cells
day by which beating cell colonies were present in all 24 independently growing cultures (P19 cells [1]): 8 days
cardiac differentiation at the OT concentration supplied by serum in culture medium (P19 cells [1]; final OT concentration of 10^−12 M): not sufficient to induce cardiac differentiation
OT release by induced P19 cells (P19 cells [3]): release OT in their culture medium
ANP mRNA level compared to undifferentiated cells (ANP mRNA): significantly upregulated
reduction of mean aggregate diameter versus untreated counterparts (P19 cells [4]): 1.5 fold
OTR expression (protein and mRNA) after treatment (OTR; day 14): increased OTR expression
OTR mRNA expression versus OT concentration (OTR; differentiated populations at day 14): concentration-dependent
early OTR induction (RT-PCR) (OTR): most potent OTR inducer
MHC and DHPR-alphal immunoreactive foci [5]: numerous, intense, immunoreactive foci
6-day versus 4-day OT treatment of aggregates (myocyte immunological markers) ([5]; not presented): no difference with the 4-day treatment
rhodamine123 retention, OT compared with DMSO (P19 cells [6]): significantly higher after OT than DMSO treatment

production of beating cell colonies (P19 cardiomyocyte differentiation, 24-well plate) [7]: 24
Compound: oxytocin (from UniProt P01178 20-28) (peptide)

Compound: C[S+](C)[O-] [DMSO]
day by which beating cell colonies were present in all 24 independently growing cultures (P19 cells [1]): 12 days
OT release by induced P19 cells (P19 cells [3]): release OT in their culture medium
ANP mRNA level compared to undifferentiated cells (ANP mRNA): at similar level
reduction of mean aggregate diameter versus untreated counterparts (P19 cells [4]): 1.5 fold
OTR expression (protein and mRNA) after treatment (OTR; day 14): increased OTR expression
MHC and DHPR-alphal immunoreactive foci [5]: numerous, intense, immunoreactive foci
efficiency of cardiac differentiation (P19 cells [2]; DMSO-induced): ≤ 15%
